Experimental findings from PubChem BioAssay (NCI) are described below.

Assay in all cases: NCI-60 cell line screen, 48 h
In experiment [1] the test system is K-562 leukemia.
Experiment [2] relates to SK-MEL-2 melanoma.
Experiment [3] relates to OVCAR-8 ovarian.
Experiment [4] relates to SF-539 CNS.
The subject of experiment [5] is SF-268 CNS.
In experiment [6] the test system is CAKI-1 renal.
In experiment [7] the test system is OVCAR-3 ovarian.
Experiment [8] deals with LOX IMVI melanoma.
Experiment [9] deals with HOP-92 NSCLC.
The subject of experiment [10] is SK-OV-3 ovarian.
The test system of experiment [11] is COLO 205 colon.
Experiment [12] has as its system IGROV1 ovarian.
In experiment [13] the test system is DU-145 prostate.
The test system of experiment [14] is MDA-MB-231 breast.
Experiment [15] relates to SK-MEL-5 melanoma.
The test system of experiment [16] is MDA-MB-435.
Experiment [17] relates to RXF 393 renal.
Experiment [18] deals with T-47D breast.
Experiment [19] relates to NCI/ADR-RES ovarian.
Experiment [20] deals with NCI-H460 lung.

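Compound exposure: 48 hours, 5 concentrations, 96-well plates. Definition used: TGI = concentration required for complete inhibition of growth.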 Where only a bound is given, the exact number is not on record here.

For `COc1ccc2c(c1)c1cc(OC)ccc1n2CCCCOc1ccc(-c2c3ccccc3c(-c3ccc(OCCCCn4c5ccc(OC)cc5c5cc(OC)ccc54)cc3)c3ccccc23)cc1`, the TGI in [1], in [2], in [3], in experiment [4], in [5] and in experiment [6] was above 100 µM each time. Besides, the TGI in experiment [7], in experiment [8], in [9], in experiment [10], in experiment [11] and in experiment [12] was above 100 µM throughout.
On to `COc1ccc(NC2=NCCO2)c2ccccc12`, for which the TGI in [13], in experiment [1], in experiment [2], in [14], in experiment [3] and in experiment [15] was above 10 µM each time. In addition, the TGI in experiment [16], in [4], in [5], in [17], in experiment [6] and in experiment [18] was above 10 µM throughout. Also, the TGI in experiment [19], in experiment [7], in [8], in [20], in [10] and in experiment [11] was above 10 µM in each case. This compound also yielded a TGI in [12] above 10 µM.
With `N#Cc1c(C#N)c(SSc2c(C#N)c(C#N)c(N)n2-c2ccccc2)n(-c2ccccc2)c1N`, the TGI in [13] was 39 µM; in experiment [1], above 100 µM; in experiment [2], 47.7 µM; in experiment [14] it was above 69.6 µM; in [3] it was above 100 µM; in [15], 31.9 µM. Besides, the TGI was 29.2 µM in experiment [16]; above 100 µM in [4]; above 72 µM in experiment [5]; 44.7 µM in [17]; 2.99 µM in experiment [6]; 5.29 µM in experiment [18]. For the same compound, the TGI in experiment [19] is above 71.4 µM; in experiment [7], 45.2 µM; in experiment [8] it was above 100 µM; in [9] it was 3.71 µM; in experiment [20], above 89.3 µM; in experiment [10], 37.5 µM. In addition, the TGI in [11] is 3.82 µM; in [12] it was above 60.5 µM.
In the case of `O/N=C\c1cc(O)c(O)c(/C=N/O)c1`, the TGI in experiment [13], in [1], in experiment [2], in [14], in [3] and in [15] was above 100 µM throughout. The TGI in experiment [16], in experiment [4], in experiment [5], in experiment [17], in [6] and in experiment [18] was above 100 µM throughout. Further, the TGI in [19], in [7], in experiment [8], in experiment [9], in experiment [20] and in experiment [10] was above 100 µM throughout. Further, the TGI in experiment [11] and in experiment [12] was above 100 µM each time.
